Usually pKi stands for the Ki on a negative log10 scale, so that one unit is a factor of ten. One may read the pIC50 as the IC50 on a negative log10 scale, so that one unit is a factor of ten. The low end stands for a large IC50, the high end for a small IC50.

Experimental findings from US10988477B2 (Merck Patent GmbH, priority 2018, dated 2021) are described below.

Assay [1] addresses GCN2 kinase (Homo sapiens, UniProt Q9P2K8). In words: GCN2 enzyme inhibition assay (Transcreener ADP2 fluorescence polarization). Type of assay: biochemical. The conditions noted are these: compounds of Formula II; 280 μM ATP, 4 nM GCN2 kinase. The essentials:
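4 nM GCN2 + 200 μM (RS)7 + compound (0–8 μM), 10 min preinc.; start with ATP (280 μM final); 1 h, 25 °C; pH 7.5 Tris/NaCl/MgCl2/DTT; ADP FP readout; IC50, Ki(app) via tight-binding fit.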
(Polarisation of emitted light reports the rotation of a fluorescent probe.)

For assay [2], the target named is intracellular GCN2 (phosphorylation of the GCN2 substrate eIF2α) (Homo sapiens, UniProt Q9P2K8). The experiment in a line: GCN2 cellular inhibition assay (AlphaScreen SureFire P-eIF2α Ser51, borrelidin-treated U2OS cells). The format is cell-based. The conditions noted are these: compounds of Formula II; biomarker assay, phosphorylated eIF2α Ser51 in borrelidin-treated U2OS cells. A digest of the protocol: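 First, U2OS cells are plated and left overnight at 37 °C. Next, compounds (from 40 μM final, 4-fold steps) and 10 μM borrelidin are added for 1 h, cells lysed, and phospho-Ser51 eIF2α detected by AlphaScreen bead sandwich. Inhibition is computed versus borrelidin-only wells.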

pIC50, pKi: −log10 of the molar value.

Sequence of GCN2 kinase (Q9P2K8 whole entry): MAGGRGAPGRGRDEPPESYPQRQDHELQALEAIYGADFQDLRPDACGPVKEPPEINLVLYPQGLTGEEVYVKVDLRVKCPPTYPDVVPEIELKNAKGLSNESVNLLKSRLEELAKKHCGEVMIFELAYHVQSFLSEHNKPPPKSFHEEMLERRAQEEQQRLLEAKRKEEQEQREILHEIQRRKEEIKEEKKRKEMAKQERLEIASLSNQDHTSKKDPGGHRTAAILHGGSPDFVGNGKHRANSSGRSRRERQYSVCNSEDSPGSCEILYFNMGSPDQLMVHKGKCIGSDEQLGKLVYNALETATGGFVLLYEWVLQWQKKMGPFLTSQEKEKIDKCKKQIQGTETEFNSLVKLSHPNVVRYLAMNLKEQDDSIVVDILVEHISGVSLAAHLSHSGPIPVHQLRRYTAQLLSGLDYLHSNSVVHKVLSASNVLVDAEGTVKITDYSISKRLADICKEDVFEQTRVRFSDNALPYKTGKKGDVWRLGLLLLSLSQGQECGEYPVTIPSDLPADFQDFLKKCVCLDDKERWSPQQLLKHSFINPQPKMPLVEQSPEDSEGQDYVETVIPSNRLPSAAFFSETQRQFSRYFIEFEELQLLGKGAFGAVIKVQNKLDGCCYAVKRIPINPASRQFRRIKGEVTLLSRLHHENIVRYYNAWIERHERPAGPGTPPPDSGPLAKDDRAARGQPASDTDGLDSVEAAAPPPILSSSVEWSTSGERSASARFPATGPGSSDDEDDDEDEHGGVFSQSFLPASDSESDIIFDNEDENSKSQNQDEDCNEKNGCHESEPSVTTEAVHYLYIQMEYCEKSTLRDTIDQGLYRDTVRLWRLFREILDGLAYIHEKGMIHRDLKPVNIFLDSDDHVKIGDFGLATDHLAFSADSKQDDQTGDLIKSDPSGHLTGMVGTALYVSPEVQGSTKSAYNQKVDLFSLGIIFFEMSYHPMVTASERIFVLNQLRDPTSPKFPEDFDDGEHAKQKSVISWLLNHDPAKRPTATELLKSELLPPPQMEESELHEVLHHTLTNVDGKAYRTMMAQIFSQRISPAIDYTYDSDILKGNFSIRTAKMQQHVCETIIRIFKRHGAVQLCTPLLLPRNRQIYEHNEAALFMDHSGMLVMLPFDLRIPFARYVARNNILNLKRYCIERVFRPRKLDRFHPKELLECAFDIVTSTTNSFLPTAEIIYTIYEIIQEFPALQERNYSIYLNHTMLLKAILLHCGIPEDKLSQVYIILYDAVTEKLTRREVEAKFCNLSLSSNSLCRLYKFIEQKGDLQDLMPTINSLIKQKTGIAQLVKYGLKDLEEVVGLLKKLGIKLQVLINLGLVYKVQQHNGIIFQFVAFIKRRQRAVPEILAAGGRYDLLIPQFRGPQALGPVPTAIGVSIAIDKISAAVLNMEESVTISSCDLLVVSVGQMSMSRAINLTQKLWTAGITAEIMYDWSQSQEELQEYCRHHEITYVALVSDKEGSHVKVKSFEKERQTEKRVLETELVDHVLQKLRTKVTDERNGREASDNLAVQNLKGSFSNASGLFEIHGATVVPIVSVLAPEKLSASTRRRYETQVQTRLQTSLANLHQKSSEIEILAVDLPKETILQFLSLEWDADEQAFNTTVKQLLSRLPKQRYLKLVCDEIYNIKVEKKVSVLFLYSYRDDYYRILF
Sequence of intracellular GCN2 (phosphorylation of the GCN2 substrate eIF2α) (Q9P2K8 whole entry): as above

As for `CS(=O)(=O)NC1CCCN(c2cc(-c3cnc4ccc(C(F)(F)F)nn34)ccn2)C1` (stereo not drawn) [II-231, N-(1-(4-(6-(Trifluoromethyl)imidazo[1,2-b]pyridazin-3-yl)pyridin-2-yl)piperidin-3-yl)methanesulfonamide], in assay [1], the pKi was 6.00 to 8.00. In assay [2], this molecule had a pIC50 of 5.30 to 6.30.

For `CS(=O)(=O)NCC1COCCN(c2cc(-c3cnc4ccc(C(F)(F)F)nn34)ccn2)C1` (stereo not drawn) [II-232, N-((4-(4-(6-(Trifluoromethyl)imidazo[1,2-b]pyridazin-3-yl)pyridin-2-yl)-1,4-oxazepan-6-yl)methyl)methanesulfonamide], the pKi in assay [1] was 6.00 to 8.00. Moreover, the pIC50 in assay [2] was 5.30 to 6.30.

`C[C@H]1CO[C@@H](CNS(C)(=O)=O)CN1c1cc(-c2cnc3ccc(C(F)F)nn23)ncn1` [II-234, N-(((2R,5S)-4-(6-(6-(difluoromethyl)imidazo[1,2-b]pyridazin-3-yl)pyrimidin-4-yl)-5-methylmorpholin-2-yl)methyl)methanesulfonamide] had a pKi in assay [1] of 6.00 to 8.00. The molecule further showed a pIC50 in assay [2] of 5.30 to 6.30.

With `CN(CC1CC(O)CN(c2cc(-c3cnc4ccc(C(F)F)nn34)ncn2)C1)S(C)(=O)=O` (stereo not drawn) [II-235, N-((1-(6-(6-(Difluoromethyl)imidazo[1,2-b]pyridazin-3-yl)pyrimidin-4-yl)-5-hydroxypiperidin-3-yl)methyl)-N-methylmethanesulfonamide], the pKi in assay [1] was 6.00 to 8.00. Also, the pIC50 in assay [2] is 5.30 to 6.30.

`C[C@H]1CN(c2cc(-c3cnc4ccc(C(F)F)nn34)ncn2)C[C@@H]1CNS(C)(=O)=O` [II-237, N-(((3R,4R)-1-(6-(6-(Difluoromethyl)imidazo[1,2-b]pyridazin-3-yl)pyrimidin-4-yl)-4-methylpyrrolidin-3-yl)methyl)methanesulfonamide] gave a pKi in assay [1] above 8.00. The same molecule had a pIC50 in assay [2] of 5.30 to 6.30.

Regarding `CC1CN(c2cc(-c3cnc4ccc(C(F)F)nn34)ncn2)CC1CNS(C)(=O)=O` (stereo not drawn) [II-238, N-((1-(6-(6-(Difluoromethyl)imidazo[1,2-b]pyridazin-3-yl)pyrimidin-4-yl)-4-methylpyrrolidin-3-yl)methyl)methanesulfonamide], the pKi in assay [1] is 6.00 to 8.00. The same molecule gave a pIC50 in assay [2] of 5.30 to 6.30.

`CC1(O)CCN(c2cc(-c3cnc4ccc(C(F)F)nn34)ncn2)CC1CNS(C)(=O)=O` (stereo not drawn) [II-239, N-((1-(6-(6-(Difluoromethyl)imidazo[1,2-b]pyridazin-3-yl)pyrimidin-4-yl)-4-hydroxy-4-methylpiperidin-3-yl)methyl)methanesulfonamide] showed a pKi in assay [1] above 8.00. Besides, in assay [2], the pIC50 was 5.30 to 6.30.

In turn, `CC1(O)CCN(c2cc(-c3cnc4ccc(C(F)F)nn34)ncn2)CC1CNS(C)(=O)=O` (stereo not drawn) [II-240, N-((1-(6-(6-(Difluoromethyl)imidazo[1,2-b]pyridazin-3-yl)pyrimidin-4-yl)-4-hydroxy-4-methylpiperidin-3-yl)methyl)methanesulfonamide] showed a negative-log Ki (pKi) in assay [1] above 8.00. The pIC50 in assay [2] was above 6.30.

`CC1C(CNS(C)(=O)=O)CCN1c1cc(-c2cnc3ccc(C(F)F)nn23)ncn1` (stereo not drawn) [II-243, N-((1-(6-(6-(Difluoromethyl)imidazo[1,2-b]pyridazin-3-yl)pyrimidin-4-yl)-2-methylpyrrolidin-3-yl)methyl)methanesulfonamide] gave a pKi in assay [1] of 6.00 to 8.00. Further, the pIC50 in assay [2] was 5.30 to 6.30.

`CC1C(CNS(C)(=O)=O)CCN1c1cc(-c2cnc3ccc(C(F)F)nn23)ncn1` (stereo not drawn) [II-244, N-((1-(6-(6-(Difluoromethyl)imidazo[1,2-b]pyridazin-3-yl)pyrimidin-4-yl)-2-methylpyrrolidin-3-yl)methyl)methanesulfonamide] gave a pKi in assay [1] of 6.00 to 8.00. This molecule gave a negative logarithm of the IC50 (pIC50) in assay [2] below 5.30.

For the molecule `CC1CCC(CNS(C)(=O)=O)CN1c1cc(-c2cnc3ccc(C(F)F)nn23)ncn1` (stereo not drawn) [II-245, N-((1-(6-(6-(Difluoromethyl)imidazo[1,2-b]pyridazin-3-yl)pyrimidin-4-yl)-6-methylpiperidin-3-yl)methyl)methanesulfonamide], the negative logarithm of the Ki (pKi) in assay [1] is 6.00 to 8.00. The same molecule had a pIC50 in assay [2] below 5.30.

The molecule `CC1CCC(CNS(C)(=O)=O)CN1c1cc(-c2cnc3ccc(C(F)F)nn23)ncn1` (stereo not drawn) [II-246, N-((1-(6-(6-(Difluoromethyl)imidazo[1,2-b]pyridazin-3-yl)pyrimidin-4-yl)-6-methylpiperidin-3-yl)methyl)methanesulfonamide] gave a pKi in assay [1] of 6.00 to 8.00. Also, in assay [2], the pIC50 was below 5.30.

In the case of `C[C@@H]1CC[C@H](CNS(C)(=O)=O)CN1c1cc(-c2cnc3ccc(C(F)F)nn23)ncn1` [II-247, N-(((3S,6R)-1-(6-(6-(Difluoromethyl)imidazo[1,2-b]pyridazin-3-yl)pyrimidin-4-yl)-6-methylpiperidin-3-yl)methyl)methanesulfonamide], in assay [1], the pKi was above 8.00. Moreover, the pIC50 in assay [2] was above 6.30.

Take `CC1CCC(CNS(C)(=O)=O)CN1c1cc(-c2cnc3ccc(C(F)F)nn23)ncn1` (stereo not drawn) [II-248, N-((1-(6-(6-(Difluoromethyl)imidazo[1,2-b]pyridazin-3-yl)pyrimidin-4-yl)-6-methylpiperidin-3-yl)methyl)methanesulfonamide]: the pKi in assay [1] was 6.00 to 8.00. Also, the pIC50 in assay [2] was 5.30 to 6.30.

In assay [1], `CS(=O)(=O)NC[C@@H]1CN(c2cc(-c3cnc4ccc(C5CC5)nn34)ncn2)CCO1` [II-249, (S)—N-((4-(6-(6-Cyclopropylimidazo[1,2-b]pyridazin-3-yl)pyrimidin-4-yl)morpholin-2-yl)methyl)methanesulfonamide] gave a pKi of 6.00 to 8.00. Further, the pIC50 in assay [2] was 5.30 to 6.30.

With `CS(=O)(=O)N1CCC(c2cc(-c3cnc4ccc(C(F)F)nn34)ncn2)C1` (stereo not drawn) [II-250, 6-(Difluoromethyl)-3-(6-(1-(methylsulfonyl)pyrrolidin-3-yl)pyrimidin-4-yl)imidazo[1,2-b]pyridazine], in assay [1], the pKi is 6.00 to 8.00. This molecule showed a pIC50 in assay [2] below 5.30.

On to `FC(F)c1ccc2ncc(-c3cc(N4CCOCC4)ncn3)n2n1` [II-251, 4-(6-(6-(Difluoromethyl)imidazo[1,2-b]pyridazin-3-yl)pyrimidin-4-yl)morpholine], for which the pKi in assay [1] is 6.00 to 8.00. Also, in assay [2], the pIC50 was below 5.30.

As to `FC(F)c1ccc2ncc(-c3cc(N4CC5(COC5)C4)ncn3)n2n1` [II-252, 6-(6-(6-(Difluoromethyl)imidazo[1,2-b]pyridazin-3-yl)pyrimidin-4-yl)-2-oxa-6-azaspiro[3.3]heptane], in assay [1], the pKi was 6.00 to 8.00. In addition, the pIC50 in assay [2] was below 5.30.

`CC(=O)N1CCC(c2cc(-c3cnc4ccc(C(F)F)nn34)ncn2)C1` (stereo not drawn) [II-253, 1-(3-(6-(6-(Difluoromethyl)imidazo[1,2-b]pyridazin-3-yl)pyrimidin-4-yl)pyrrolidin-1-yl)ethan-1-one]: in assay [1], the pKi is 6.00 to 8.00. The same molecule showed a pIC50 in assay [2] below 5.30.

In the case of `O=C(NCCO)N1CCC(c2cc(-c3cnc4ccc(C(F)F)nn34)ncn2)C1` (stereo not drawn) [II-254, 3-(6-(6-(Difluoromethyl)imidazo[1,2-b]pyridazin-3-yl)pyrimidin-4-yl)-N-(2-hydroxyethyl)pyrrolidine-1-carboxamide], the pKi in assay [1] was 6.00 to 8.00. Besides, the pIC50 in assay [2] was below 5.30.

Take `CS(=O)(=O)CCN1CCC(c2cc(-c3cnc4ccc(C(F)F)nn34)ncn2)C1` (stereo not drawn) [II-255, 6-(Difluoromethyl)-3-(6-(1-(2-(methylsulfonyl)ethyl)pyrrolidin-3-yl)pyrimidin-4-yl)imidazo[1,2-b]pyridazine]: the pKi in assay [1] was 6.00 to 8.00. Further, the pIC50 in assay [2] is below 5.30.
